Tested on: PC12 cells
Test: Measurements of cGMP in rat PC12 cell line (cGMP accumulation, enzyme immunoassay)
Type: cell-based
Conditions: for EC50: PC-12, 0.75 h
Description: Measurements of cGMP in Rat PC12 Cell Line
cGMP contributes to the function and interaction of several vascular cell types and its dysfunction is involved in major cardiovascular diseases such as hypertension, diabetic complications, atherosclerosis, and tissue infarction. Therefore the extent of cGMP formation elicited by the compounds of the inventions was evaluated in the rat pheochromocytoma (PC12) cell line.
Cells were maintained at 37° C. in DMEM medium enriched with 10% horse serum and 5% foetal bovine serum under 5% CO2 atmosphere. At the time of experiments the cells were washed once with Hank's Balanced Salt Solution (HBSS) supplemented with 0.05% ascorbic acid and preincubated in the same buffer for 10 min in a floating water bath. After the preincubation step, cells were exposed for additional 45 min to either control conditions or increasing concentrations of test compounds ranging from 0.1 to 25 μM, in the presence of the phosphodiesterase inhibitor, IBMX (100 μM) and the NO-independent activator of soluble guanylyl cyclase, YC-1 (20 μM). The reaction was terminated by the removal of the incubating buffer and consecutive addition of 100 μl of absolute ethanol. The organic extracts were then evaporated to dryness and the residues dissolved in aqueous buffer for quantitative determination of intracellular cGMP levels using the cGMP enzyme immunoassay kit.
The obtained results reported in Table 1 are expressed as EC50 (μM) and efficacy Emax (% of vehicle). As shown in the table the nitroderivatives of carvedilol induced a consistent increase of intracellular cGMP formation in PC12 cell line. Conversely, this effect was not induced by the parent compound.

[1] = 45 min exposure, 0.1 to 25 μM test compound, in presence of IBMX (100 μM) and YC-1 (20 μM)

Structure (SMILES) | EC50, cGMP accumulation in PC12 cells [1] | Emax (% of vehicle), cGMP accumulation in PC12 cells [1] | increase of intracellular cGMP formation in PC12 cell line (in words) (summary statement on Table 1) | EC50 [1]
COc1ccccc1OCCNCC(O)COc1cccc2[nH]c3ccccc3c12 (centres unmarked) [Carvedilol] | Not effective | Not effective | not induced | –
COc1ccccc1OCCNCC(COc1cccc2[nH]c3ccccc3c12)OC(=O)c1ccc(CO[N+](=O)[O-])cc1 (centres unmarked) [Compound of example 1, 4-(Nitrooxymethyl)benzoic acid 1-(9H-carbazol-4-yloxy)-3-[[2-(2-methoxyphenoxy)ethyl]amino]-2-propanoate] | – | 480 % of vehicle | – | 2300 nM
COc1ccccc1OCCN(CC(O)COc1cccc2[nH]c3ccccc3c12)C(=O)c1ccc(CO[N+](=O)[O-])cc1 (centres unmarked) [Compound of example 3, 1-(9H-carbazol-4-yloxy)-3-[[2-(2-methoxyphenoxy)ethyl][(4-nitrooxymethyl)benzoyl]amino]-2-propanol] | – | 565 % of vehicle | – | 1800 nM
COc1ccccc1OCCN(CC(O)COc1cccc2[nH]c3ccccc3c12)C(=O)CCO[N+](=O)[O-] (centres unmarked) [Compound of example 4] | – | 395 % of vehicle | – | 1700 nM
COc1ccccc1OCCN(CC(O)COc1cccc2[nH]c3ccccc3c12)C(=O)CCCCCO[N+](=O)[O-] (centres unmarked) [Compound of example 5] | – | 322 % of vehicle | – | 600 nM
